pIC50: −log10 of the molar value.
Key:
[1] = Kinetic solubility assay; type: physicochemical; settings: kinetic solubility, 50 mM PB (pH 7.4), shaken 24 hours at RT
Procedure: 10 μL of 10 mM in DMSO of test article and control compounds was added into lower chambers of whatman miniuniprep vials, respectively. 490 μL of 50 mM PB (pH 7.4) was then added into lower chambers of the whatman miniuniprep vials, respectively. […] Miniuniprep vials were shaken for 24 hours at RT at the speed of 800 rpm, centrifuged 20 minutes (eg. 4000 rpm) and the filtrates were analyzed by UPLC-UV/HPLC-UV system to calculate the concentration with standard curve.
Filter Membrane: Miniuniprep (PTFE Filter Media with Polypropylene Housing) Cat. No. UN203NPUORG, GE Halthcare Whatman.

[2] = target: T1, wtKIT (Homo sapiens, UniProt P10721); assay: Caliper biochemical assay, wtKIT; settings: Table 6, read-out: KIT Biochemical IC50 avg
T1 construct: 1888289AM in the reaction mixtures
T1 sequence (P10721 26-976): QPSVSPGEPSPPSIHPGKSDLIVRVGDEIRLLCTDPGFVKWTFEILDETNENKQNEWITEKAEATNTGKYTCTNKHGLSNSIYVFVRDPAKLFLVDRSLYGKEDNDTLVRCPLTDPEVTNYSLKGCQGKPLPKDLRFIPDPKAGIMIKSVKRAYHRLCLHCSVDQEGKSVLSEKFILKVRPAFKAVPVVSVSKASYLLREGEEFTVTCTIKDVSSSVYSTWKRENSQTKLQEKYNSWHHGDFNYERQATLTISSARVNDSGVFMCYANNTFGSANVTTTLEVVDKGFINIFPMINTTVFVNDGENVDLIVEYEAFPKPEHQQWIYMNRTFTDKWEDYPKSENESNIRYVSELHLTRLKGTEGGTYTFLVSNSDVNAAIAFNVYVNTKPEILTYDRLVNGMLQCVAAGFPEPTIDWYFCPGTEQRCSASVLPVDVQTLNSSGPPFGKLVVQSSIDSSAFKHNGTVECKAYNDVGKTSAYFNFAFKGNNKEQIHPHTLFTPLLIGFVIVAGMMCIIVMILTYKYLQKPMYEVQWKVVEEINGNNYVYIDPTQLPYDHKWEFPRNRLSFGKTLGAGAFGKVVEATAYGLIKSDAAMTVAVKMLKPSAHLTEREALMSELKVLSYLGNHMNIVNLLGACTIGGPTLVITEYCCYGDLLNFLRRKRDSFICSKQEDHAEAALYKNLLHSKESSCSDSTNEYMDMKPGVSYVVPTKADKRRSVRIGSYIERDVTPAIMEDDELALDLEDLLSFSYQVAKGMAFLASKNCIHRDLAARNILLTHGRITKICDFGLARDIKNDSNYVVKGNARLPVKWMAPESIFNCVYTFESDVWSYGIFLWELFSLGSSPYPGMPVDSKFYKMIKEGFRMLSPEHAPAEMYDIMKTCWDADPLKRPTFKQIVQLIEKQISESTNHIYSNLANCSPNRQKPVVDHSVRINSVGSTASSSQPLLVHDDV
Procedure: Enzyme, substrate, and cofactors (ATP and Mn^2+) are combined in a well of a microtiter plate and incubated for 3 hours at 25° C. At the end of the incubation, the reaction is quenched by the addition of an EDTA-containing buffer. Substrate and product are separated electrophoretically using the microfluidic-based LabChip 3000 Drug Discovery System from Caliper Life Sciences* and quantitated by fluorescence intensity.
The substrate used in the CSF-1R and PDGFRα assay is FAM-[…]-CONH2 (FAM is carboxyfluorescein). Peptide should be >95% purity. The substrate for the KIT assay is FAM-[…]-NH2.
• 1. To a well of a 384-well plate add 5 μL of 2× enzyme buffer (or control) • 2. Add 100 nL of 100× compound. • 3. Add 5 μL of 2× substrate buffer. • 4. Incubate plate at 25° C. for 3 hours. • 5. Add 10 uL of […]. • 6. Read plate LabChip 3000 Drug Discovery System
• 3 hours at 25° C. where 100% Inhibitor: No enzyme.
• 100 mM HEPES, pH 7.5 0.1% BSA • 0.01% Triton X-100 • 1 mM DTT • 10 mM MnCl2 • 10 μM Sodium Orthovanadate • 10 μM Beta-Glycerophosphate • 400 μM ATP • 1% DMSO (from compound) • 1 μM FAM-[…]-CONH2 5.0 nM wtKIT Enzyme (1888289AM)* • *Specific activity may vary from lot to lot. Enzyme concentration may need to be adjusted to yield 10-20% conversion of substrate to product.

[3] = target: T2, BCRP (BCRP-MDCKII monolayer) (Homo sapiens, UniProt Q9UNQ0); assay: MDCKII-BCRP bidirectional transport assay; type: in vitro ADME
T2 construct: host or cells: MDCKII (canine kidney) cells
T2 sequence (Q9UNQ0 1-655): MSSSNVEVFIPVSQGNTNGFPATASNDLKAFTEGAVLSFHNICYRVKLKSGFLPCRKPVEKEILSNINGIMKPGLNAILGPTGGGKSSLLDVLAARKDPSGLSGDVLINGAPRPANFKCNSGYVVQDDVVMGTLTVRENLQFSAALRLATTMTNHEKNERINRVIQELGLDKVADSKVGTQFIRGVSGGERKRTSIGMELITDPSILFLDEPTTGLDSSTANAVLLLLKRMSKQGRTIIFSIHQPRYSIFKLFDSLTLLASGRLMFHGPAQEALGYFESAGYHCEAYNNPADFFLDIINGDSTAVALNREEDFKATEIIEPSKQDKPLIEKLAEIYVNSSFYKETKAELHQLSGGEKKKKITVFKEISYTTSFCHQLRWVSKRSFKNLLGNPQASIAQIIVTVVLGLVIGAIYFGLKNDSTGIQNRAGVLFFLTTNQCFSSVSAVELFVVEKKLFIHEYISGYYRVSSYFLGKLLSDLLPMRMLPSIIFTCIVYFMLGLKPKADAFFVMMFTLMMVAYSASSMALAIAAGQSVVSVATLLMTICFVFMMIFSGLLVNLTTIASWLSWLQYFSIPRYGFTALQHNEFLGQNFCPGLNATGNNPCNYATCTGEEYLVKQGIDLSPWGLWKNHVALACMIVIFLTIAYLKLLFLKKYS
Procedure: Exemplary compounds were tested for cell permeability in Caco-2, MDCKII-MDR1 and MDCKII-BCRP cell lines with efflux transporter engagement inferred from the efflux ratios determined. Procedures and results are described below. […] This feature of certain compounds is in part due to efflux transporter engagement. See, for instance, exemplary such compounds included in data tables below.
The reference compound Teriflunomide and test compounds are tested in the bidirectional assay. Test compound and reference compounds incubations were tested in duplicates.
The transport assay can be performed between days 12 to day 15 using ready to use PreadyPort™ BCRP-MDCKII monolayer in 96 well plate.
The medium was aspirated from the apical and basal compartments and 75 and 235 μL assay buffer was added to each of the 96 wells of apical and basal compartments of the PreadyPort™ plate.
The plates were pre-incubated for 15 min at 37° C. with 5% CO2 in humidified atmosphere. After preincubation the assay buffer was removed from the apical and basal inserts of the plate.
In apical to basolateral (A→B) transport, 75 μL of test or reference compound working solution to apical inserts and 235 μL of blank assay buffer were added to the corresponding basal compartments.
In basolateral to apical transport, 235 μL of test or reference compound working solution to the basal compartments and 75 μL of blank assay buffer solution were added to corresponding apical inserts.
The sandwich plate was incubated for 120 min in incubator at 5% CO2 and 37° C.
After incubation, 60 μL was transferred from receiver and donor compartments to collection plate.
For donor and C0 samples 20-fold dilution was accomplished by mixing 60 μL of collected sample with 1140 μL of transport buffer and from that solution aliquot 60 μL transfer Both receiver and donor samples were processed by adding […] of acetonitrile containing internal standard (60 μL of sample+240 μL of acetonitrile containing glyburide as internal standard, 125 ng/mL) and vortexing the samples. The compound concentration was measured in all samples using respective calibration standards by LC-MS/MS.
Calculate the Papp and recovery using the given formula:
[formula] [formula] • Where: dQ/dt=Permeability rate in μM/see • C0=Initial concentration in μM • A=Membrane surface area (0.33 cm^2) • V=Volume of receiver chamber • Cend, a=concentration in acceptor well at end of incubation • Cend, d=concentration in donor well at end of incubation • CHBSS=loading concentration measured in HBSS

[4] = target: T1, wtKIT; assay: HTRF biochemical assay, wtKIT (phosphorylation of a peptide substrate); settings: Table 4
Procedure, shortened: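 HTRF read-out of FAM-peptide (1 µM) phosphorylation after anti-phosphotyrosine antibody addition and EDTA quench. Reaction: 5.0 nM wtKIT, 400 µM ATP, 10 mM Mn2+, HEPES pH 7.5, 1% DMSO, 3 h, 25 °C; optional enzyme-compound preincubation; enzyme level set for 10-20% conversion.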

| SMILES | Solubility (μM) [1] | other results |
| --- | --- | --- |
| Cc1ccc(-c2noc([C@H]3C[C@@H]3F)n2)cc1NC(=O)c1cnc2ccc(Cl)nn12 [Compound I-289] | *** (a solubility greater than 2 μM and less than or equal to 10 μM) | pIC50 [2]: 6.30 to 7.30 |
| COc1ccc(Nc2ccn3c(C(=O)Nc4cc(-c5noc([C@H]6C[C@@H]6F)n5)ccc4C)cnc3c2)cc1OC [Compound I-285] | **** (a solubility less than or equal to 2 μM) | pIC50 [2]: ≥ 7.30 |
| CC(C)(C)OC(=O)N1CC(c2nc(-c3ccc(Cl)c(NC(=O)c4cnc5ccccn45)c3)no2)C1 [Compound I-333] | **** (a solubility less than or equal to 2 μM) | pIC50 [2]: ≥ 7.30 |
| Cc1ccc(-c2noc(C3C(C)CC3C)n2)cc1NC(=O)c1cnc2ccccn12 (stereo not shown) [Compound I-315] | **** (a solubility less than or equal to 2 μM) | pIC50 [2]: ≥ 7.30 |
| Cc1ccc(-c2noc(C3CCC3F)n2)cc1NC(=O)c1cnc2ccccn12 (stereo not shown) [Compound I-400] | **** (a solubility less than or equal to 2 μM) | MDCK-BCRP: Efflux Ratio [3]: 1.44; MDCK-BCRP: Papp A-B ([3]; apical to basolateral): 11.7 10^−6 cm/s |
| Cc1ccc(-c2noc(C3(C)CCCC3(F)F)n2)cc1NC(=O)c1cnc2ccccn12 (racemic) [Compound I-374] | **** (a solubility less than or equal to 2 μM) | pIC50 [2]: ≥ 7.30 |
| Cc1ccc(-c2noc([C@H]3C[C@@H]3F)n2)cc1NC(=O)c1cnc2ccc(Nc3ccc4c(c3)OCCO4)cn12 [Compound I-290] | *** (a solubility greater than 2 μM and less than or equal to 10 μM) | pIC50 [2]: ≥ 7.30 |
| Cc1ccc(-c2noc([C@H]3CC4(CC4)CN3)n2)cc1NC(=O)c1cnc2ccccn12 [I-231] | ** (a solubility greater than 10 μM and less than or equal to 50 μM) |  |
| Cc1ccc(-c2noc([C@H]3C[C@@H]3F)n2)cc1NC(=O)c1cnn2cc(OC(F)(F)F)ccc12 [I-19] | **** (a solubility less than or equal to 2 μM) |  |
| Cc1ccc(-c2noc([C@H]3C[C@@H]3F)n2)cc1NC(=O)c1cnc2ccc(N3CCCC3=O)cn12 [I-4] | **** (a solubility less than or equal to 2 μM) |  |
| Cc1ccc(-c2noc([C@H]3C[C@@H]3F)n2)cc1NC(=O)c1cnc2cc(CF)ccn12 [I-49] | **** (a solubility less than or equal to 2 μM) |  |
| Cc1ccc(-c2noc(C3COC3)n2)cc1NC(=O)c1cnc2cc(CC(F)(F)F)ccn12 [I-36] | **** (a solubility less than or equal to 2 μM) |  |
| Cc1ccc(-c2noc([C@H]3CC(=O)CN3)n2)cc1NC(=O)c1cnc2ccccn12 [Compound I-223] |  | pIC50 [2]: ≥ 7.30; pIC50 [4]: 6.30 to 7.30 |
| CC(=O)NCc1ccc2ncc(C(=O)Nc3cc(-c4noc([C@H]5C[C@@H]5F)n4)ccc3C)n2c1 [I-9] | **** (a solubility less than or equal to 2 μM) |  |
| O=C(Nc1cc(-c2noc(C3CC3(F)F)n2)ccc1Cl)c1cnc2ccccn12 (stereo not shown) [I-74] | **** (a solubility less than or equal to 2 μM) |  |
| Cc1cn2c(C(=O)Nc3cc(-c4noc([C@H]5C[C@@H]5F)n4)ccc3C)cnc2cc1C#N [I-26] | **** (a solubility less than or equal to 2 μM) |  |
| Cc1ccc(-c2noc([C@H]3C[C@@H]3F)n2)cc1NC(=O)c1cnc2cc(N3CCCC3=O)ccn12 [I-14] | **** (a solubility less than or equal to 2 μM) |  |
| Cc1ccc(-c2noc(C3COC3)n2)cc1NC(=O)c1cnc2cc(OC(F)(F)F)ccn12 [I-24] | **** (a solubility less than or equal to 2 μM) |  |
| Cc1ccc(-c2noc([C@H]3C[C@@H]3F)n2)cc1NC(=O)c1cnc2cc(N3CCC(C)CC3)ccn12 [Compound I-303] | **** (a solubility less than or equal to 2 μM) | pIC50 [2]: ≥ 7.30 |
| Cc1noc(-c2ccc3ncc(C(=O)Nc4cc(-c5noc([C@H]6C[C@@H]6F)n5)ccc4C)n3c2)n1 [I-2] | **** (a solubility less than or equal to 2 μM) |  |
| Cc1ccc(-c2noc([C@H]3C[C@@H]3F)n2)cc1NC(=O)c1cnc2cc3c(cn12)COC3 [I-28] | **** (a solubility less than or equal to 2 μM) |  |
| COc1ccn2c(C(=O)Nc3cc(-c4nc(C)no4)ccc3Cl)cnc2c1 [I-37] | **** (a solubility less than or equal to 2 μM) |  |
| Cc1ccc(-c2noc([C@H]3C[C@@H]3F)n2)cc1NC(=O)c1cnc2cc(CNS(=O)(=O)C3CC3)ccn12 [I-10] | **** (a solubility less than or equal to 2 μM) |  |
| COc1ccc2ncc(C(=O)Nc3cc(-c4noc(CC(O)C(F)F)n4)ccc3C)n2c1 (single isomer, unassigned) [I-66] | **** (a solubility less than or equal to 2 μM) |  |
| Cc1ccc(-c2noc(C3CC3F)n2)cc1NC(=O)c1cnc2cc(CNC(=O)C3CCCO3)ccn12 (mixture of isomers) [I-33] | *** (a solubility greater than 2 μM and less than or equal to 10 μM) |  |
| Cc1ccc(-c2noc([C@H]3C[C@@H]3F)n2)cc1NC(=O)c1cnc2ccc(CNC(=O)CO)cn12 [I-8] | **** (a solubility less than or equal to 2 μM) |  |
| Cc1ccc(-c2noc([C@H]3C[C@@H]3F)n2)cc1NC(=O)c1cnc2cc(CNC(=O)C(C)(C)O)ccn12 [I-31] | **** (a solubility less than or equal to 2 μM) |  |
